Source: patent US20050282755A1, “Compositions having antimicrobial activity and uses thereof” (priority 2004, published 2005)
≈ marks a conversion by molar mass, not a printed value. Non-standard residues stand in square brackets, D forms with d. Residues, ends and D or L forms follow the SMILES beside them. *: point of attachment. 1Nal = N[C@@H](Cc1cccc2ccccc12)C(=O)O; Lauroyl = CCCCCCCCCCCC(=O)*; Octanoyl = CCCCCCCC(=O)*; Hexanoyl = CCCCCC(=O)*

Columns and labels:
Assay type in all cases: cell-based
[1] = system: Staphylococcus aureus ATCC 29213; assay: MIC, NCCLS M7-A6 broth microdilution, cation-adjusted Mueller Hinton broth (Table 9, no superscript); details: ATCC 29213
How it was run: (§1)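 Values come from a broth microdilution assay run in cation-adjusted Mueller Hinton broth with an inoculum of 5×10^5 to 1×10^6 CFU/milliliter, incubated overnight at 37° C and read as absence of visible turbidity.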

[2] = system: Escherichia coli ATCC 25922; assay: MIC, NCCLS M7-A6 broth microdilution (Table 9, no superscript); details: ATCC 25922
How it was run: as §1

[3] = system: Pseudomonas aeruginosa ATCC 27853; assay: as above; details: ATCC 27853
How it was run: as §1

Salmonella dublin (Lane) = assay: as above
How it was run: as §1

[4] = system: Staphylococcus epidermidis ATCC 12228; assay: as above; details: ATCC 12228
How it was run: as §1

Row | MIC S. aureus [1] [µg/mL] | MIC E. coli [2] [µg/mL] | MIC P. aeruginosa [3] [µg/mL] | MIC S. dublin (Salmonella dublin (Lane)) [µg/mL] | MIC S. epidermidis [4] [µg/mL] | Structure (SMILES)
1 | 32 (≈ 16.1 µM) | 32 (≈ 16.1 µM) | 64 (≈ 32.2 µM) | 64 (≈ 32.2 µM) | 8 (≈ 4.03 µM) | CCCCCCCC(=O)NCCCC[C@H](NC(=O)[C@H](CCCNC(=N)N)NC(=O)[C@H](CC(C)C)NC(=O)[C@H](Cc1ccccc1)NC(=O)[C@H](CC(N)=O)NC(=O)[C@H](CCCNC(=N)N)NC(=O)[C@H](C)NC(=O)[C@@H](NC(=O)[C@H](CC(=O)O)NC(=O)[C@H](CCCNC(=N)N)NC(=O)[C@H](Cc1c[nH]c2ccccc12)NC(=O)[C@H](CCCNC(=N)N)NC(=O)[C@H](CO)NC(=O)[C@@H](N)CCCNC(=N)N)C(C)C)C(N)=O [Peptide 179, H2N-RSRWRDVARNFLRK(Octanyl)-NH2] (H-RSRWRDVARNFLRK(Octanoyl)-NH2)
2 | 32 (≈ 17.3 µM) | >64 | 32 (≈ 17.3 µM) | >64 | 4 (≈ 2.17 µM) | CCCCCCCCCCCC(=O)N[C@H](CCCNC(=N)N)C(=O)N[C@H](CO)C(=O)N[C@H](CCCNC(=N)N)C(=O)N[C@H](Cc1c[nH]c2ccccc12)C(=O)N[C@H](CCCNC(=N)N)C(=O)N[C@H](CC(=O)O)C(=O)N[C@@H](C(=O)N[C@H](C)C(=O)N[C@H](CCCNC(=N)N)C(=O)N[C@H](CC(N)=O)C(=O)N[C@H](Cc1ccccc1)C(=O)N[C@H](CCSC)C(=O)N[C@H](C)C(N)=O)C(C)C [Peptide 231, Lauryl-rsrwrdvarnfma-NH2] (Lauroyl-[dR][dS][dR][dW][dR][dD][dV][dA][dR][dN][dF][dM][dA]-NH2)
3 | 32 (≈ 17.2 µM) | 16 (≈ 8.62 µM) | 32 (≈ 17.2 µM) | 8 (≈ 4.31 µM) | 4 (≈ 2.15 µM) | CCCCCCCC(=O)N[C@H](CCCNC(=N)N)C(=O)N[C@H](CO)C(=O)N[C@H](CCCNC(=N)N)C(=O)N[C@H](Cc1c[nH]c2ccccc12)C(=O)N[C@H](CCCNC(=N)N)C(=O)N[C@H](CC(=O)O)C(=O)N[C@@H](C(=O)N[C@H](C)C(=O)N[C@H](CCCNC(=N)N)C(=O)N[C@H](CC(N)=O)C(=O)N[C@H](Cc1ccccc1)C(=O)N[C@H](CC(C)C)C(=O)N[C@H](CCCNC(=N)N)C(N)=O)C(C)C [Peptide 189, Octyl-rsrwrdvarnflr-NH2] (Octanoyl-[dR][dS][dR][dW][dR][dD][dV][dA][dR][dN][dF][dL][dR]-NH2)
4 | >64 | 8 (≈ 4.09 µM) | 16 (≈ 8.17 µM) | 16 (≈ 8.17 µM) | 2 (≈ 1.02 µM) | CCCCCC(=O)NCCCC[C@H](NC(=O)[C@H](CCCNC(=N)N)NC(=O)[C@H](CC(C)C)NC(=O)[C@H](Cc1ccccc1)NC(=O)[C@H](CC(N)=O)NC(=O)[C@H](CCCNC(=N)N)NC(=O)[C@H](C)NC(=O)[C@@H](NC(=O)[C@H](CC(=O)O)NC(=O)[C@H](CCCNC(=N)N)NC(=O)[C@H](Cc1c[nH]c2ccccc12)NC(=O)[C@H](CCCNC(=N)N)NC(=O)[C@H](CO)NC(=O)[C@@H](N)CCCNC(=N)N)C(C)C)C(N)=O [Peptide 178, H2N-RSRWRDVARNFLRK(Hexanyl)-NH2] (H-RSRWRDVARNFLRK(Hexanoyl)-NH2)
5 | 8 (≈ 4.55 µM) | 16 (≈ 9.11 µM) | >64 | >64 | 4 (≈ 2.28 µM) | CCCCCCCCCCCC(=O)N[C@@H](CCCNC(=N)N)C(=O)N[C@@H](CO)C(=O)N[C@@H](CCCNC(=N)N)C(=O)N[C@@H](Cc1c[nH]c2ccccc12)C(=O)N[C@@H](CCCNC(=N)N)C(=O)N[C@@H](CC(=O)O)C(=O)N[C@H](C(=O)N[C@@H](C)C(=O)N[C@@H](CCCNC(=N)N)C(=O)N[C@@H](CC(N)=O)C(=O)N[C@@H](Cc1ccccc1)C(=O)N[C@@H](CC(C)C)C(N)=O)C(C)C [Peptide 161, Lauryl-RSRWRDVARNFL-NH2] (Lauroyl-RSRWRDVARNFL-NH2)
6 | >64 | 64 (≈ 35 µM) | >64 | >64 | 16 (≈ 8.75 µM) | CCCCCC(=O)N[C@H](CCCNC(=N)N)C(=O)N[C@H](CO)C(=O)N[C@H](CCCNC(=N)N)C(=O)N[C@H](Cc1c[nH]c2ccccc12)C(=O)N[C@H](CCCNC(=N)N)C(=O)N[C@H](CC(=O)O)C(=O)N[C@@H](C(=O)N[C@H](C)C(=O)N[C@H](CCCNC(=N)N)C(=O)N[C@H](CC(N)=O)C(=O)N[C@H](Cc1ccccc1)C(=O)N[C@H](CC(C)C)C(=O)N[C@H](CCCNC(=N)N)C(N)=O)C(C)C [Peptide 188, Hexyl-rsrwrdvarnflr-NH2] (Hexanoyl-[dR][dS][dR][dW][dR][dD][dV][dA][dR][dN][dF][dL][dR]-NH2)
7 | >64 | >64 | >64 | >64 | 16 (≈ 8.52 µM) | CSCC[C@H](NC(=O)[C@H](Cc1ccccc1)NC(=O)[C@H](CC(N)=O)NC(=O)[C@H](CCCNC(=N)N)NC(=O)[C@H](C)NC(=O)[C@H](Cc1c[nH]c2ccccc12)NC(=O)[C@H](CC(=O)O)NC(=O)[C@H](CCCNC(=N)N)NC(=O)[C@H](Cc1c[nH]c2ccccc12)NC(=O)[C@H](CCCNC(=N)N)NC(=O)[C@H](CO)NC(=O)[C@H](CCCNC(=N)N)NC(C)=O)C(=O)N[C@@H](CCCNC(=N)N)C(N)=O [Peptide 94, Ac-RSRWRDWARNFMR-NH2] (Ac-RSRWRDWARNFMR-NH2)
8 | 4 (≈ 2.01 µM) | 64 (≈ 32.1 µM) | >64 | 8 (≈ 4.02 µM) | 8 (≈ 4.02 µM) | CCCCCCCCCCCC(=O)N[C@@H](CCCNC(=N)N)C(=O)N[C@@H](CO)C(=O)N[C@@H](CCCNC(=N)N)C(=O)N[C@@H](Cc1cccc2ccccc12)C(=O)N[C@@H](CCCNC(=N)N)C(=O)N[C@@H](CC(=O)O)C(=O)N[C@H](C(=O)N[C@@H](C)C(=O)N[C@@H](CCCNC(=N)N)C(=O)N[C@@H](CC(N)=O)C(=O)N[C@@H](Cc1cccc2ccccc12)C(=O)N[C@@H](CCSC)C(=O)N[C@@H](CCCNC(=N)N)C(N)=O)C(C)C [Peptide 154, Lauryl-RSRZRDVARNZMR-NH2 Z = 1-naphthylalanine] (Lauroyl-RSR[1Nal]RDVARN[1Nal]MR-NH2)
9 | 8 (≈ 4.33 µM) | 8 (≈ 4.33 µM) | 8 (≈ 4.33 µM) | 8 (≈ 4.33 µM) | 4 (≈ 2.17 µM) | CCCCCCCCCCCC(=O)N[C@H](CCCNC(=N)N)C(=O)N[C@H](CO)C(=O)N[C@H](CCCNC(=N)N)C(=O)N[C@H](Cc1c[nH]c2ccccc12)C(=O)N[C@H](C)C(=O)N[C@H](CC(=O)O)C(=O)N[C@@H](C(=O)N[C@H](C)C(=O)N[C@H](CCCNC(=N)N)C(=O)N[C@H](CC(N)=O)C(=O)N[C@H](Cc1ccccc1)C(=O)N[C@H](CCSC)C(=O)N[C@H](CCCNC(=N)N)C(N)=O)C(C)C [Peptide 229, Lauryl-rsrwadvarnfmr-NH2] (Lauroyl-[dR][dS][dR][dW][dA][dD][dV][dA][dR][dN][dF][dM][dR]-NH2)
10 | 1 (≈ 0.566 µM) | 16 (≈ 9.05 µM) | 8 (≈ 4.52 µM) | 2 (≈ 1.13 µM) | 2 (≈ 1.13 µM) | CCCCCCCCCCCC(=O)N[C@H](CCCNC(=N)N)C(=O)N[C@H](C)C(=O)N[C@H](CCCNC(=N)N)C(=O)N[C@H](Cc1c[nH]c2ccccc12)C(=O)N[C@H](CCCNC(=N)N)C(=O)N[C@H](C)C(=O)N[C@@H](C(=O)N[C@H](C)C(=O)N[C@H](CCCNC(=N)N)C(=O)N[C@H](C)C(=O)N[C@H](Cc1ccccc1)C(=O)N[C@H](C)C(=O)N[C@H](CCCNC(=N)N)C(N)=O)C(C)C [Peptide 217, Lauryl-rarwravarafar-NH2] (Lauroyl-[dR][dA][dR][dW][dR][dA][dV][dA][dR][dA][dF][dA][dR]-NH2)
11 | 32 (≈ 17.3 µM) | 64 (≈ 34.7 µM) | >64 | >64 | 16 (≈ 8.67 µM) | CCCCCCCCCCCC(=O)N[C@H](C)C(=O)N[C@H](CO)C(=O)N[C@H](CCCNC(=N)N)C(=O)N[C@H](Cc1c[nH]c2ccccc12)C(=O)N[C@H](CCCNC(=N)N)C(=O)N[C@H](CC(=O)O)C(=O)N[C@@H](C(=O)N[C@H](C)C(=O)N[C@H](CCCNC(=N)N)C(=O)N[C@H](CC(N)=O)C(=O)N[C@H](Cc1ccccc1)C(=O)N[C@H](CCSC)C(=O)N[C@H](CCCNC(=N)N)C(N)=O)C(C)C [Peptide 236, Lauryl-asrwrdvarnfmr-NH2] (Lauroyl-[dA][dS][dR][dW][dR][dD][dV][dA][dR][dN][dF][dM][dR]-NH2)
12 | 64 (≈ 30.6 µM) | >64 | >64 | 16 (≈ 7.65 µM) | 16 (≈ 7.65 µM) | CCCCCCCCCCCC(=O)N[C@@H](CCCNC(=N)N)C(=O)N[C@@H](CO)C(=O)N[C@@H](CCCNC(=N)N)C(=O)N[C@@H](Cc1cccc2ccccc12)C(=O)N[C@@H](CCCNC(=N)N)C(=O)N[C@@H](CC(=O)O)C(=O)N[C@@H](Cc1cccc2ccccc12)C(=O)N[C@@H](C)C(=O)N[C@@H](CCCNC(=N)N)C(=O)N[C@@H](CC(N)=O)C(=O)N[C@@H](Cc1cccc2ccccc12)C(=O)N[C@@H](CCSC)C(=O)N[C@@H](CCCNC(=N)N)C(N)=O [Peptide 155, Lauryl-RSRZRDZARNZMR-NH2 Z = 1-naphthylalanine] (Lauroyl-RSR[1Nal]RD[1Nal]ARN[1Nal]MR-NH2)
13 | 32 (≈ 27.7 µM) | 64 (≈ 55.5 µM) | >64 | >64 | 64 (≈ 55.5 µM) | CCCCCCCCCCCC(=O)N[C@H](CCCNC(=N)N)C(=O)N[C@H](Cc1c[nH]c2ccccc12)C(=O)N[C@H](CCCNC(=N)N)C(=O)N[C@H](CC(=O)O)C(=O)N[C@H](CC(C)C)C(=O)N[C@H](C)C(=O)N[C@H](CCCNC(=N)N)C(N)=O [Peptide 244, Lauryl-rwrdlar-NH2] (Lauroyl-[dR][dW][dR][dD][dL][dA][dR]-NH2)
